Assay results reported in article PMC12209172, “Poly(ADP-ribose)polymerase 2 is zinc-dependent enzyme and nucleosome reorganizer” (Cellular and Molecular Life Sciences: CMLS, 2025).

Biological target: PARP2 (Mus musculus, UniProt O88554)
Assay: Western blot analysis of NAD+-dependent PARylation by PARP2 in PARP2-nucleosome complexes
Assay type: biochemical
Set-up: Recombinant mouse full-length PARP2 was obtained in the baculovirus expression system; made in house; host or cells: PARP2: Sf9 insect cells (baculovirus), gift of Prof; O. Lavrik; nucleosomes assembled in house
Conditions: Mg2+ 5 mM or Zn2+ 0.3 mM; PARP2 100 nM, nucleosomes 3 nM, NAD+ 0-5 µM
Procedure: Probes were subjected to electrophoresis in 4–12% bis-Tris gradient gel in the NuPAGE™ MES SDS Running Buffer at 130 V. […] The membrane was incubated for 60 min in the PBS-T solution supplemented with the 5% skimmed milk. Then the membrane was incubated with mouse monoclonal antibodies 10 H followed by incubation with the secondary anti-mouse antibodies conjugated with horseradish peroxidase (Bio-Rad, Hercules, CA, USA). The washing procedure was carried out after each step of incubation. Immunodetection was performed using the Super Signal West Pico Chemiluminescent Substrate (Thermo Fisher Scientific, Waltham, MA, USA) for 3 min. The Western blot experiments were performed in three independent repetitions.

effect of ions on efficiency of PARP2-mediated PARylation: decrease
SMILES: [Cl-].[Cl-].[Zn+2] [Zn2+, ZnCl2]
